According to the supplement of paper PMC10331698:
± gives the standard deviation of the averaged measurements.

What was measured:
Experiment in all cases: LOEC (log10 uM (lowest observed effect concentration))
[1] = compound: C=CC(=O)OCC(F)(F)C(F)(F)C(F)(F)C(F)(F)COC(=O)C=C [1H,1H,6H,6H-Perfluorohexane-1,6-diol diacrylate]
Experimental: (§1)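 BioMAP Diversity Plus panel in human primary cell co-cultures, 4 concentrations in duplicate blinded samples. Responses are log10 fold change versus DMSO control, processed with tcpl v2.1.0. A hit is called when responses at any concentration exceed the cutoff (the larger of 3*bmad or log10(1.2)); the lowest observed effect concentration (modl_ga, log10 uM) is reported for hits.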

[2] = compound: C=CC(=O)OCCC(F)(F)C(F)(F)C(F)(F)C(F)(F)C(F)(F)C(F)(F)C(F)(F)C(F)(F)F [8:2 Fluorotelomer acrylate]
Experimental: as §1

[3] = compound: Cc1ccc(S(=O)(=O)OCC(F)(F)C(F)(F)C(F)(F)C(F)(F)C(F)(F)C(F)F)cc1 [1H,1H,7H-Perfluoroheptyl 4-methylbenzenesulfonate]
Experimental: as §1

[4] = compound: FC(F)(I)C(F)(F)C(F)(F)C(F)(F)C(F)(F)C(F)(F)I [1,6-Diiodoperfluorohexane]
Experimental: as §1

[5] = compound: OCC(F)(F)C(F)(F)C(F)(F)C(F)(F)C(F)(F)C(F)(F)C(F)(F)C(F)(F)CO [1H,1H,10H,10H-Perfluorodecane-1,10-diol]
Experimental: as §1

[6] = compound: OCCCC(F)(F)C(F)(F)C(F)(F)C(F)(F)C(F)(F)C(F)(F)C(F)(F)C(F)(F)F [3-(Perfluorooctyl)propanol]
Experimental: as §1

Perfluorooctanoic acid = compound: O=C(O)C(F)(F)C(F)(F)C(F)(F)C(F)(F)C(F)(F)C(F)(F)C(F)(F)F [Perfluorooctanoic acid]
Experimental: as §1

[7] = compound: O=P(O)(O)CCC(F)(F)C(F)(F)C(F)(F)C(F)(F)C(F)(F)C(F)(F)F [2-(Perfluorohexyl)ethylphosphonic acid]
Experimental: as §1

[8] = compound: O=C(CC(=O)C(F)(F)C(F)(F)C(F)(F)F)c1cccs1 [(Perfluorobutyryl)-2-thenoylmethane]
Experimental: as §1

Perfluoropinacol = compound: OC(C(F)(F)F)(C(F)(F)F)C(O)(C(F)(F)F)C(F)(F)F [Perfluoropinacol]
Experimental: as §1

[9] = compound: OCCC(F)(F)C(F)(F)C(F)(F)C(F)(F)C(F)(F)C(F)(F)C(F)(F)C(F)(F)F [8:2 Fluorotelomer alcohol]
Experimental: as §1

| Test System | LOEC (log10 uM) [1] | LOEC (log10 uM) [2] | LOEC (log10 uM) [3] | LOEC (log10 uM) [4] | LOEC (log10 uM) [5] | LOEC (log10 uM) [6] | LOEC (log10 uM) (Perfluorooctanoic acid) | LOEC (log10 uM) [7] | LOEC (log10 uM) [8] | LOEC (log10 uM) (Perfluoropinacol) | LOEC (log10 uM) [9] |
| --- | --- | --- | --- | --- | --- | --- | --- | --- | --- | --- | --- |
| KF3CT IL8 down | 1.3 | 1.54 ± 0.34 | 1.3 | 1.07 ± 0.32 | 1.78 | 1.3 | – | – | – | – | – |
| hDFCGF Proliferation up | – | – | – | – | – | – | 1.3 | 1.78 | – | – | – |
| KF3CT MMP9 down | 1.3 | 1.54 ± 0.34 | – | 0.845 | – | 1.3 | – | – | 0.845 | 1.78 | 1.07 ± 0.32 |
